Like-named read-outs stand apart in the source and are kept apart here. Values belong to the compound of their own block, whether it stands above or below them.
Legend:
[1] = molecular target: T1, PKN1 (Homo sapiens, UniProt Q16512); assay: Bisubstrate steady-state kinetic analysis of PKN1 in the presence of arachidonic acid
[2] = molecular target: T2, PKN2 (Homo sapiens, UniProt Q16513); assay: Bisubstrate steady-state kinetic analysis of PKN2 in the presence of arachidonic acid
[3] = molecular target: T3, PKN3 (Homo sapiens, UniProt Q6P5Z2); assay: Bisubstrate steady-state kinetic analysis of PKN3 in the presence of arachidonic acid
T3 sequence (Q6P5Z2 whole entry): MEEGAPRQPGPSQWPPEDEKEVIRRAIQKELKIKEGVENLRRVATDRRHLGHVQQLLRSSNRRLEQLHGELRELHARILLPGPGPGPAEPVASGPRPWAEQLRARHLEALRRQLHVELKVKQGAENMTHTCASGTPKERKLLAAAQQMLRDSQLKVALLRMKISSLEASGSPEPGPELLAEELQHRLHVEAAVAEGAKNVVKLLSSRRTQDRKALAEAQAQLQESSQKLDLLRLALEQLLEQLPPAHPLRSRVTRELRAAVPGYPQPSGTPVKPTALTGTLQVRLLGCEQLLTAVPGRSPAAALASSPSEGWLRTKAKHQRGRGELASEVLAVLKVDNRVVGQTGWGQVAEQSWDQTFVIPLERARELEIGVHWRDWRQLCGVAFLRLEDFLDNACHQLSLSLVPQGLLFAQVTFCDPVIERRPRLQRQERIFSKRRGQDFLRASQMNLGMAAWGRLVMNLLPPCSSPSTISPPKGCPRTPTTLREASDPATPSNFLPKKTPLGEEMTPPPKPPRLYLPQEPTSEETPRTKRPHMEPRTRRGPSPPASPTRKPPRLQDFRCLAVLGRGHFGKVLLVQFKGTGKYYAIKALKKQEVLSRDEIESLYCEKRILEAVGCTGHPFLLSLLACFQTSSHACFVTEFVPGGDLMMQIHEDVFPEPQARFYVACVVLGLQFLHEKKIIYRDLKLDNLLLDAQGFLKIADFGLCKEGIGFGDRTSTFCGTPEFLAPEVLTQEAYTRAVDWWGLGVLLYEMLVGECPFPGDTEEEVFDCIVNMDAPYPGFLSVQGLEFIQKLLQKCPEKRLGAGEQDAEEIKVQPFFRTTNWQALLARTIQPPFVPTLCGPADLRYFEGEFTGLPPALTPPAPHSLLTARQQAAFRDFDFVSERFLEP

[4] = molecular target: T3, PKN3; assay: Lipid activation of PKN3 kinase activity, off-chip mobility shift assay; type: biochemical; parameters: Full-length, FLAG-tagged human PKN1, PKN2 and PKN3 were expressed in mammalian HEK-293 cells
Experimental: (§1) Lipids were supplied as a solid powders, ethanol, or chloroform solutions. All solids were dissolved directly into assay buffer and briefly water bath sonicated at room temperature for 10 min. Lipids supplied as solutions in organic solvent were dried under a gentle stream of nitrogen, resuspended in assay buffer, and similarly sonicated. All lipids were prepared fresh daily.
(§2) The activity of all PKN proteins was monitored through the use of a highly sensitive off-chip mobility shift assay utilizing a LabChip EZ Reader II instrument (Caliper Life Sciences/PerkinElmer); this assay format has been described elsewhere. Kinase activity was monitored through the phosphorylation of a 5-FAM-labelled PKN substrate peptide found through Pfizer in-house optimization efforts and derived from the amino acid sequence of GSK3α (accession no. AAH51865.1) with the following sequence: 5-FAM-C6-[…]-NH2. The likely site of phosphorylation is underlined, as determined through comparison with the published phosphorylation consensus sequence for PKN1 and PKN3 substrates. Reaction buffer contained 25 mM Tris, pH 8.0, 5 mM MgCl2, 0.002% CHAPS and 2 mM DTT, with indicated protein, ATP and peptide concentrations. Peptide concentration was adjusted according to purity and peptide content. For inhibition studies, the inhibitor was pre-incubated with enzyme for 15 min at room temperature. All reactions were initiated with ATP and conducted at room temperature (~22°C). Reactions were terminated by the addition of EDTA, pH 8.0, at a final concentration of 25 mM. All reaction rates were determined to be linear with respect to time and enzyme concentration where no more than 20% of peptide substrate had been converted to product. Aliquots of each reaction were transferred in duplicate to a 384-well plate and analysed on a LabChip EZ Reader II with separation buffer containing 100 mM Hepes, pH 7.5, 0.015% Brij-35, 1 mM EDTA, 0.1% CR3 coating reagent, 1×CR8 coating reagent and 5% DMSO, with the following settings: downstream voltage: −500 V, upstream voltage: −2300 V, base pressure: −0.5 psi; screen pressure: −1.7 psi.
Ki values for representative inhibitors were determined by fitting initial reaction velocities to eqn (2) for competitive inhibition using the method of non-linear least-squares using GraphPad Prism. Turnover number (kcat) was calculated by normalizing Vmax values for enzyme concentration.
(§3) Figure 2 PKN responses to lipid activators in biochemical assays Lipids were prepared as described under the Experimental section, and kinase activity of PKN isoforms was measured using off-chip mobility shift assay described in the Methods section. Each lipid was titrated in the presence of 1 nM, 5 nM and 3 nM PKN1–3, respectively, 3 μM peptide and 500 μM ATP. vi is the initial rate at each concentration of lipid activator and vo is the initial rate in the absence of lipid.

[5] = molecular target: T1, PKN1; assay: Lipid activation of PKN1 kinase activity, off-chip mobility shift assay; type: biochemical; parameters: Full-length, FLAG-tagged human PKN1, PKN2 and PKN3 were expressed in mammalian HEK-293 cells; host or cells: HEK-293 (transient transfection, pcDNA4/TO); details: saturating ATP (500 μM), 3 μM peptide, 1 nM PKN1; for PKN1 Maximal fold activation: increase in initial rate
Experimental: as §1
as §2, with “psi. […]” for “psi.”
as §3

[6] = molecular target: T2, PKN2; assay: Lipid activation of PKN2 kinase activity, off-chip mobility shift assay; type: biochemical; parameters: Full-length, FLAG-tagged human PKN1, PKN2 and PKN3 were expressed in mammalian HEK-293 cells; host or cells: HEK-293 (transient transfection, pcDNA4/TO)
Experimental: as §1
as §2, with “psi. […]” for “psi.”
as §3

[7] = tested on: PKN2; parameters: method as in PMID 17850214, PMID 10998351; details: ref [29],[30], cited from earlier work
[8] = molecular target: T1, PKN1; assay: PKN1 kinase inhibition, off-chip mobility shift assay; type: biochemical; parameters: Full-length, FLAG-tagged human PKN1, PKN2 and PKN3 were expressed in mammalian HEK-293 cells; host or cells: HEK-293 (transient transfection, pcDNA4/TO)
[9] = tested on: RIP2; details: read-out: IC50 RIP2; panel of over 70 protein kinases; ref [29]; cited from earlier work
[10] = tested on: Lck; details: read-out: IC50 Lck; panel of over 70 protein kinases; ref [29]; cited from earlier work
[11] = tested on: Src; details: read-out: IC50 Src; panel of over 70 protein kinases; ref [29]; cited from earlier work
[12] = tested on: CK1δ; details: read-out: IC50 CK1δ; panel of over 70 protein kinases; ref [29]; cited from earlier work
[13] = tested on: CSK; details: read-out: IC50 CSK; panel of over 70 protein kinases; ref [29]; cited from earlier work
[14] = molecular target: T3, PKN3; assay: PKN3 kinase inhibition, off-chip mobility shift assay; type: biochemical; parameters: Full-length, FLAG-tagged human PKN1, PKN2 and PKN3 were expressed in mammalian HEK-293 cells
[15] = 100 μM vs 0 μM arachidonic acid

T2 sequence (Q16513 whole entry): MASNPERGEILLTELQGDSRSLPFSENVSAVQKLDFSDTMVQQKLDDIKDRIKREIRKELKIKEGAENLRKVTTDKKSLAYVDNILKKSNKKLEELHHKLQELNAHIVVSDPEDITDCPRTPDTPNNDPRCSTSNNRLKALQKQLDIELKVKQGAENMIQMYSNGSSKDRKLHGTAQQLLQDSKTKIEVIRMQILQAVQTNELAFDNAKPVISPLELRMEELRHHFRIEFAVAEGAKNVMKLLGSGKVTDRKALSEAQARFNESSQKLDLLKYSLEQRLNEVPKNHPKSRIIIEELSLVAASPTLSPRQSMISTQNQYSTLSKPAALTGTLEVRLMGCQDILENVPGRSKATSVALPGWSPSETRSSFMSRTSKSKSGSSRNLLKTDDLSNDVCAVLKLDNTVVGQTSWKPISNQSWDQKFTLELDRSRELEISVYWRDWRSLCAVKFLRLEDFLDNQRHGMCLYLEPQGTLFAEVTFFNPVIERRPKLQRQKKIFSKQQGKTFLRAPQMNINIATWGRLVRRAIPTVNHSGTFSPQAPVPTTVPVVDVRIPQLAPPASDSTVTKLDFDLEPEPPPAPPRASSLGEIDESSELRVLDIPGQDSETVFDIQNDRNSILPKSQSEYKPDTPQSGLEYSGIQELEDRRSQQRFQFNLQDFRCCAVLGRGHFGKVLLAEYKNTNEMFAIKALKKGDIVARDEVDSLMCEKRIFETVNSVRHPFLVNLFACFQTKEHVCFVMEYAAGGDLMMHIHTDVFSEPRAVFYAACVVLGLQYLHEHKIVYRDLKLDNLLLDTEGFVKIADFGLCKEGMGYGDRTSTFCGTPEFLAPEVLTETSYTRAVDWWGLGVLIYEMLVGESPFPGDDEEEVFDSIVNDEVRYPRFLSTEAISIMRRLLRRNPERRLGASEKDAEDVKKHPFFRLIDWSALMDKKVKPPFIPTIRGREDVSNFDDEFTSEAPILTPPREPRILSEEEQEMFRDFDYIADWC
T1 sequence (Q16512 whole entry): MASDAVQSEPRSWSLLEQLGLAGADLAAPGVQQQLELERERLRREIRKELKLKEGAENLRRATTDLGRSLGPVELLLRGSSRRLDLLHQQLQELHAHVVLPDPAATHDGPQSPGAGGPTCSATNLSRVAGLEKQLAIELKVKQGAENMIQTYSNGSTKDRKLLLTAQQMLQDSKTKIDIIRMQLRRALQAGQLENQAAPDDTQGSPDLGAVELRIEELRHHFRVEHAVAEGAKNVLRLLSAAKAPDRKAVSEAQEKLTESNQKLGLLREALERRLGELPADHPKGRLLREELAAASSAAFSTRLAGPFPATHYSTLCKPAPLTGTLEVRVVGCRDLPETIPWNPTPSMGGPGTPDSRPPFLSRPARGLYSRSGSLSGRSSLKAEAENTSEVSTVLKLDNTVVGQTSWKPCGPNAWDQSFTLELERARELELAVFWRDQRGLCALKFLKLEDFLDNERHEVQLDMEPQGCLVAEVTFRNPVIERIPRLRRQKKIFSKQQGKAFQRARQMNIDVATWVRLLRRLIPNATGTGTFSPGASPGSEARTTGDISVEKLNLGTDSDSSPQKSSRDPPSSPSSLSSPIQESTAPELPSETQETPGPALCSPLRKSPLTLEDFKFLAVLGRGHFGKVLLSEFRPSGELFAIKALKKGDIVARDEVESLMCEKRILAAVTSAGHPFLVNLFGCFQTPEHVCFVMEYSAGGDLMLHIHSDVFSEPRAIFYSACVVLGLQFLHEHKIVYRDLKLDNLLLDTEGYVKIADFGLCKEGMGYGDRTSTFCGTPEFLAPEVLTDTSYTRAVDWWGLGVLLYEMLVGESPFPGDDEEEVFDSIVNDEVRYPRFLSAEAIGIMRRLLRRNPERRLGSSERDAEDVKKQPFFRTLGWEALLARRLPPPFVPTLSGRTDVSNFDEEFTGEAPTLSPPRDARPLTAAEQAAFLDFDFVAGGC

Kia of PKN1 (equilibrium dissociation constant of ATP) ([1]; 100 μM arachidonic acid): 19 ± 10 µM
kcat of PKN1 ([1]; 100 μM arachidonic acid): 13 ± 6 s⁻¹
effect on ATP KM for PKN1 [1, 15]: relatively unaffected
increase in catalytic efficiency (kcat/KM,Pep) of PKN1 [1, 15]: 32 fold
increase in kcat for PKN1 [1, 15]: 18 fold
Kia of PKN2 (equilibrium dissociation constant of ATP) ([2]; 100 μM arachidonic acid): 2 ± 1 µM
kcat of PKN2 ([2]; 100 μM arachidonic acid): 0.9 ± 0.1 s⁻¹
increase in catalytic efficiency (kcat/KM,Pep) of PKN2 [2, 15]: 12 fold
increase in kcat for PKN2 [2, 15]: 9 fold
increase in kcat/KM,ATP of PKN2 [2, 15]: 45 fold
reduction of ATP KM for PKN2 [2, 15]: 6 fold
Kia of PKN3 (equilibrium dissociation constant of ATP) ([3]; 5 μM arachidonic acid): 14 ± 3 µM
kcat of PKN3 ([3]; 5 μM arachidonic acid): 1.1 ± 0.1 s⁻¹
reduction of ATP KM for PKN3 ([3]; 5 μM vs 0 μM arachidonic acid): 3 fold
effect on kcat for PKN3 ([3]; arachidonic acid at 5 μM): no effect
decrease in KM,Pep of PKN3 ([3]; arachidonic acid at 5 μM vs 0 μM): 4 fold
effect on PKN3 kinase activity ([4]; higher concentrations of arachidonic acid (above 5 μM)): significantly inhibited
PKN3 Maximal fold activation ([4]; increase in initial rate, saturating ATP (500 μM), 3 μM peptide, 3 nM PKN3): <2 fold
effect on PKN3 kinase activity ([4]; relatively low (5 μM) concentration of arachidonic acid): slightly stimulated
PKN1 Maximal fold activation [5]: 16 fold
PKN1 Maximal fold activation ([5]; listed as arachidonic acid): 10–16 fold
EC50 ([5]; lipid activator): 11000 ± 1000 nM
effect on PKN2 kinase activity ([6]; in words, saturating ATP): increased
PKN2 Maximal fold activation ([6]; increase in initial rate, saturating ATP (500 μM), 3 μM peptide, 5 nM PKN2): 7 fold
EC50 ([6]; lipid activator, saturating ATP (500 μM), 3 μM peptide, 5 nM PKN2): 9000 ± 1000 nM
SMILES: CCCCC/C=C\C/C=C\C/C=C\C/C=C\CCCC(=O)O [Arachidonic Acid]

Ki ([8]; absence of lipids, fit to competitive inhibition, ±S.D., n=2, read-out: PKN1, Ki): 700 ± 200 nM
SMILES: C[C@@H](N)[C@H]1CC[C@H](C(=O)Nc2ccncc2)CC1 [Compound 7, Y27632]

SMILES: Cc1ccc(-c2nn(C(C)(C)C)c3ncnc(N)c23)cc1 [Compound 8, PP1]
PKN2 remaining activity ([7]; at 1 μM): 84%
IC50 [9]: 26 nM
IC50 [12]: 170 nM
IC50 [13]: 640 nM
Ki [14]: 1.3 ± 0.1 nM
Ki [8]: > 5000 nM

From PMC3958129, “Enzyme kinetics and distinct modulation of the protein kinase N family of kinases by lipid activators and small molecule inhibitors” (Bioscience Reports, 2014)
